Laboratory results as given in patent US20080057529A1, “Method for Identifying Histone Deacetylase Inhibitors” (priority 2003, published 2008).

What was measured:
Format in all cases: cell-based, human
[1] = test system: CMV promoter; experiment: Transient transfection of HeLa cells with CMV-BLA (pCMV-BLA) reporter plasmid, Bla staining (blue cells)
Experimental: (§1) The p21m-BLA reporter plasmid was tested in transient transfection experiments of HeLa cells to evaluate the responsiveness of the minimal p21 promoter and the Bla reporter system to known HDAC inhibitors. In the first two transfection experiments, HeLa cells were transfected with 1 or 2 μg of Bla reporter plasmid containing either p21 minimal promoter (p21m-BLA) or CMV promoter (CMV-BLA) and 0.1 μg of pCMV-Luc or pRSV-Luc control plasmids. Different DNA-FUGENE transfection reagent ratios were tested (FUGENE is available from Roche Applied Science, Indianapolis, Ind.). […] Data are summarized below in Tables 1 and 2.
(§2) The percentage of β-lactamase-positive cells increased with time independent of the presence of HDAC inhibitors and was constantly higher with p21m-BLA than with pCMV-BLA.
(§3) In light of the above, the lack of apparent Bla activation in the above transfection experiments might have been due to the high sensitivity of the method. Therefore, transient transfections in which an accurate titration of the reporter plasmid DNA were performed. The titration of the reporter plasmid included using amounts lower than was used above. […] The transient transfections were repeated and the result confirmed (Table 7).

[2] = test system: CMV promoter; experiment: Luc activity of co-transfected pCMV-Luc control plasmid in HeLa cells; details: for RLU norm mean / RLU/μg: Table 5; for RLU/μg: luciferase control plasmid not named
[3] = test system: HDAC activity (acetylated histone H3); experiment: Acetylation of core histones (inhibition of HDAC activity) in HeLa cells, acetylated histone H3 immunoblot; details: HeLa cells, 13 hour treatment, immunoblot densitometry; read-out: AcH3 EC50
Experimental: (§4) Induction of endogenous p21 and acetylation of core histones (inhibition of HDAC activity) was as follows. Dose-response experiments were performed in HeLa cells with different classes of known HDAC inhibitors. […] An α-tubulin-specific antibody (Sigma, St. Louis, Mo.; catalog number: T9026) was used as an internal standard. Quantitative data were obtained by densitometric analysis of X-ray films and were normalized for the internal standard values.

[4] = test system: p21 minimal promoter; experiment: Transient transfection of HeLa cells with p21m-BLA reporter plasmid, Bla staining (blue cells)
Experimental: as §1, §2, §3

[5] = test system: endogenous p21; experiment: Induction of endogenous p21 in HeLa cells, immunoblot; details: 13 hour treatment, immunoblot densitometry, read-out: Endogenous p2 EC50
Experimental: as §4

[6] = test system: p21 minimal promoter; experiment: Transient transfection of HeLa cells with p21m-SEAP reporter plasmid, SEAP activity; details: Apicidin 1 μM, TSA 300 nM; for SEAP (10 min) / SEAP norm-bckg/RLU norm: Table 5
Experimental: To determine whether the p21 minimal promoter was responsive to HDAC inhibitors, a reporter plasmid containing the secreted alkaline phosphatase gene (SEAP) operably linked to the p21 minimal promoter (−182 through +25), pcDNA3-21m-SEAP, was tested in transient transfection experiments of HeLa cells. […] All data summarized in Tables 4 through 7 were obtained by normalizing the total amount of transfected DNA to 2.1 μg using a promoterless plasmid.

[7] = Table 2, 400 nM, 12 hours, 1 μg CMV-BLA + 3 μL F + CMV-luc
[8] = Table 3, 2 μg pCMV-BLA + 0.1 μg pCMV-Luc, 12 hr treatment, TSA 300 nM, Apicidin 1 μM
[9] = Table 3, 2 μg pCMV-BLA + 0.1 μg pCMV-Luc, 24 hr treatment, TSA 300 nM, Apicidin 1 μM
[10] = Table 2, 400 nM, 12 hours, 1 μg p21m-BLA + 3 μL F + CMV-luc
[11] = Table 3, 2 μg p21m-BLA + 0.1 μg pCMV-Luc, 6 hr treatment, TSA 300 nM, Apicidin 1 μM
[12] = Table 3, 2 μg p21m-BLA + 0.1 μg pCMV-Luc, 12 hr treatment, TSA 300 nM, Apicidin 1 μM
[13] = Table 3, 2 μg p21m-BLA + 0.1 μg pCMV-Luc, 24 hr treatment, TSA 300 nM, Apicidin 1 μM
[14] = Apicidin 1 μM, TSA 300 nM, P21m-SEAP 0 μg DNA
[15] = Apicidin 1 μM, TSA 300 nM, P21m-SEAP 0.1 μg DNA
[16] = Apicidin 1 μM, TSA 300 nM, P21m-SEAP 0.5 μg DNA
[17] = Apicidin 1 μM, TSA 300 nM, P21m-SEAP 1 μg DNA

SMILES: CC(/C=C/C(=O)NO)=C\[C@@H](C)C(=O)c1ccc(N(C)C)cc1 [TSA, Trichostatin A]
- % Blue cells ([1]; Table 1, 400 nM, 12 hours induction, 1 μg CMV-BLA + 3 μL F): 5%
- % Blue cells ([1]; Table 1, 400 nM, 12 hours induction, 2 μg CMV-BLA + 6 μL F): 15-20%
- % Blue cells ([1]; Table 2, 400 nM, 12 hours induction, 1 μg CMV-BLA + 3 μL F): 5%
- % Blue cells ([1]; Table 2, 400 nM, 12 hours induction, 2 μg CMV-BLA + 6 μL F): 5%
- % Blue cells [1, 7]: 5%
- % Blue cells ([1]; Table 2, 400 nM, 12 hours, 1 μg CMV-BLA + 3 μL F + RSV-luc): 7%
- % Blue cells ([1]; Table 2, 400 nM, 12 hours, 2 μg CMV-BLA + 6 μL F + CMV-luc): 7%
- % Blue cells ([1]; Table 2, 400 nM, 12 hours, 2 μg CMV-BLA + 6 μL F + RSV-luc): 7%
- % Blue cells [1, 8]: 4-5%
- % Blue cells [1, 9]: 15%
- RLU/mg ([2]; Table 1, 400 nM, 12 hours, 2 μg CMV-BLA + 6 μL F, control plasmid not given): 14934 RLU/mg
- RLU/mg ([2]; Table 1, 400 nM, 12 hours, 2 μg p21m-BLA + 6 μL F, control plasmid not given): 50773.9 RLU/mg
- RLU/mg ([2]; Table 1, 400 nM, 12 hours, 2 μg p21m-BLA + 10 μL F, control plasmid not given): 22499.2 RLU/mg
- RLU/mg [2, 7]: 14928.8 RLU/mg
- RLU/mg [2, 10]: 47709.8 RLU/mg
- RLU/mg [2, 11]: 85379 RLU/mg
- RLU/mg [2, 12]: 248656.9 RLU/mg
- RLU/mg [2, 13]: 110180.6 RLU/mg
- RLU/mg ([2]; Table 3, 2 μg pCMV-BLA + 0.1 μg pCMV-Luc, 6 hr treatment, TSA 300 nM, Apicidin 1 μM): 12579.8 RLU/mg
- RLU/mg [2, 8]: 33592.3 RLU/mg
- RLU/mg [2, 9]: 22233.7 RLU/mg
- RLU norm mean [2, 14]: 0.97
- RLU/μg [2, 14]: 94,973.90 RLU/μg
- RLU norm mean [2, 15]: 0.97
- RLU/μg [2, 15]: 95,526.00 RLU/μg
- RLU/μg ([2]; Apicidin 1 μM, TSA 300 nM, P21m-SEAP 0.2 μg DNA): 116,091.50 RLU/μg
- RLU norm mean [2, 16]: 0.85
- RLU/μg [2, 16]: 83,237.58 RLU/μg
- RLU norm mean [2, 17]: 0.89
- RLU/μg [2, 17]: 87,194.70 RLU/μg
- RLU/μg ([2]; Apicidin 1 μM, TSA 300 nM, P21m-SEAP 2 μg DNA): 111,592.45 RLU/μg
- EC50 [3]: 130 nM
- % Blue cells ([4]; Table 1, 400 nM, 12 hours induction, 1 μg p21m-BLA + 3 μL F): 1%
- % Blue cells ([4]; Table 1, 400 nM, 12 hours induction, 1 μg p21m-BLA + 5 μL F): <1%
- % Blue cells ([4]; Table 1, 400 nM, 12 hours induction, 2 μg p21m-BLA + 6 μL F): 1%
- % Blue cells ([4]; Table 1, 400 nM, 12 hours induction, 2 μg p21m-BLA + 10 μL F): <1%
- % Blue cells ([4]; Table 2, 400 nM, 12 hours induction, 1 μg p21m-BLA + 3 μL F): 5%
- % Blue cells ([4]; Table 2, 400 nM, 12 hours induction, 2 μg p21m-BLA + 6 μL F): 5%
- % Blue cells [4, 10]: 4%
- % Blue cells ([4]; Table 2, 400 nM, 12 hours, 1 μg p21m-BLA + 3 μL F + RSV-luc): 5%
- % Blue cells ([4]; Table 2, 400 nM, 12 hours, 2 μg p21BLA + 6 μL F + CMV-luc): 4%
- % Blue cells ([4]; Table 2, 400 nM, 12 hours, 2 μg p21m-BLA + 6 μL F + RSV-luc): 4%
- % Blue cells [4, 11]: 2-3%
- % Blue cells [4, 12]: 10%
- % Blue cells [4, 13]: 10%
- EC50 [5]: 190 nM
- induction of SEAP (maximum) ([6]; p21m-SEAP promoter titration in HeLa): up to 26 fold
- SEAP (10 min) ([6]; P21m-SEAP 0 μg DNA (total DNA 2.1 μg)): 2313
- SEAP norm-bckg/RLU norm ([6]; P21m-SEAP 0.1 μg DNA): 6,558.72
- SEAP (10 min) ([6]; P21m-SEAP 0.1 μg DNA (total DNA 2.1 μg)): 4405
- SEAP norm-bckg/RLU norm ([6]; P21m-SEAP 0.2 μg DNA): 11,855.92
- SEAP (10 min) ([6]; P21m-SEAP 0.2 μg DNA (total DNA 2.1 μg)): 9328
- SEAP norm-bckg/RLU norm ([6]; P21m-SEAP 0.5 μg DNA): 25,471.82
- SEAP (10 min) ([6]; P21m-SEAP 0.5 μg DNA (total DNA 2.1 μg)): 15743
- SEAP norm-bckg/RLU norm ([6]; P21m-SEAP 1 μg DNA): 108,713.07
- SEAP (10 min) ([6]; P21m-SEAP 1 μg DNA (total DNA 2.1 μg)): 50626
- SEAP norm-bckg/RLU norm ([6]; P21m-SEAP 2 μg DNA): 201,678.57
- SEAP (10 min) ([6]; P21m-SEAP 2 μg DNA (total DNA 2.1 μg)): 109998
